Measurements from US10968215B2 (SHANGHAI HAIHE PHARMACEUTICAL CO., LTD., priority 2016, dated 2021).
pIC50: −log10 of the molar value.

What follows are compounds tested against PRC2 complex (EZH2 Y641F/EED/SUZ12/RbAp48/AEBP2) (Homo sapiens (Human), UniProt Q15910, Y641F) (assay: Activity of a compound to PRC2 complex (EZH2 Y641F), HTRF). Settings: not given.
Chain of PRC2 complex (EZH2 Y641F/EED/SUZ12/RbAp48/AEBP2) (Q15910 whole entry Y641F): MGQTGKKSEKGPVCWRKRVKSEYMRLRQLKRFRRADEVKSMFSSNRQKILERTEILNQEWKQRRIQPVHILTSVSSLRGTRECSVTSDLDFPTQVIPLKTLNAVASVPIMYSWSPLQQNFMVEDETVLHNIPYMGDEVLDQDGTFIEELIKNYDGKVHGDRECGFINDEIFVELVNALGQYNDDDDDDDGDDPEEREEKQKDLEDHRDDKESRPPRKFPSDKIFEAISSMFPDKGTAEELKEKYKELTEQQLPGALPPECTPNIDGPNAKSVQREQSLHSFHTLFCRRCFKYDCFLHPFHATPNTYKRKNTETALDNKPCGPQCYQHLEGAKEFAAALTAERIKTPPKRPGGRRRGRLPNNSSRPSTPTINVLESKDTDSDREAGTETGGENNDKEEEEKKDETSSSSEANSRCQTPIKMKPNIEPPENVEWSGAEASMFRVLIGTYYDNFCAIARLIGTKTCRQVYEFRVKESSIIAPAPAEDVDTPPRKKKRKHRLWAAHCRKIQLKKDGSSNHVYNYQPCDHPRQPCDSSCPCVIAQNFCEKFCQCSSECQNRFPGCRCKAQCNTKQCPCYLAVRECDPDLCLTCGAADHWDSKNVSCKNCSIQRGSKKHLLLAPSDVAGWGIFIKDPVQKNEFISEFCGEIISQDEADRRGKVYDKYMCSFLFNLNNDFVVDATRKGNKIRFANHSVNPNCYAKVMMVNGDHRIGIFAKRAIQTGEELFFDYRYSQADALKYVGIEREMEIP
Chain of PRC2 complex (EZH2 Y641F/EED/SUZ12/RbAp48/AEBP2) (O75530 whole entry partner): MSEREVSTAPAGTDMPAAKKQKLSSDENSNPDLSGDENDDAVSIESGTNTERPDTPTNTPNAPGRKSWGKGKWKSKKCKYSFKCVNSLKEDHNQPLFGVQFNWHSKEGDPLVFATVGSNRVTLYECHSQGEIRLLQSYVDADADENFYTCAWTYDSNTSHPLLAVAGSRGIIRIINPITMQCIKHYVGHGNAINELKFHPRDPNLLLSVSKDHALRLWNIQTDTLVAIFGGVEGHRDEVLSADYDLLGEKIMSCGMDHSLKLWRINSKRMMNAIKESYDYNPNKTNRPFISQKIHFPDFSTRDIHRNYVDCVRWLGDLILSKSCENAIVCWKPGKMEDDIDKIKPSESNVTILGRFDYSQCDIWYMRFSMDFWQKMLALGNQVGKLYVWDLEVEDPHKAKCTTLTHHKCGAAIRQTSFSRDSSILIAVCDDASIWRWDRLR
Chain of PRC2 complex (EZH2 Y641F/EED/SUZ12/RbAp48/AEBP2) (Q15022 whole entry partner): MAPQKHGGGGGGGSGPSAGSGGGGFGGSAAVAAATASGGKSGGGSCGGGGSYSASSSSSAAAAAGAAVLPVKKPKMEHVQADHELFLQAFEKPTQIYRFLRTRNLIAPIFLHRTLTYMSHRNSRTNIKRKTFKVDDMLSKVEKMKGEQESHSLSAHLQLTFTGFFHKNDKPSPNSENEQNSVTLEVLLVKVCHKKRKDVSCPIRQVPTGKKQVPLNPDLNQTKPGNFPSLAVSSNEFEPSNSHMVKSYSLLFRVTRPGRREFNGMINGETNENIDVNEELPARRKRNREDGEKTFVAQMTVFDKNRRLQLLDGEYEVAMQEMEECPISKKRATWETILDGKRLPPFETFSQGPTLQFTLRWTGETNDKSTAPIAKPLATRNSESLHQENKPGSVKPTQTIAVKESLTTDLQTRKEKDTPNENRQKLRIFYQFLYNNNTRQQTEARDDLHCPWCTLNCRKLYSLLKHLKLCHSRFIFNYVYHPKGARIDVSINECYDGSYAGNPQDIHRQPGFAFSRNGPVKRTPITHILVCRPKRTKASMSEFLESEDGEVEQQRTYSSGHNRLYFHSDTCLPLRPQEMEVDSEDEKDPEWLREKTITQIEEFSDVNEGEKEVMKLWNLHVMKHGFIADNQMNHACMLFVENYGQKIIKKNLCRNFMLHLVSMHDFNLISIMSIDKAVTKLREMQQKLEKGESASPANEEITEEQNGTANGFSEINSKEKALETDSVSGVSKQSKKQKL
Chain of PRC2 complex (EZH2 Y641F/EED/SUZ12/RbAp48/AEBP2) (Q09028 whole entry partner): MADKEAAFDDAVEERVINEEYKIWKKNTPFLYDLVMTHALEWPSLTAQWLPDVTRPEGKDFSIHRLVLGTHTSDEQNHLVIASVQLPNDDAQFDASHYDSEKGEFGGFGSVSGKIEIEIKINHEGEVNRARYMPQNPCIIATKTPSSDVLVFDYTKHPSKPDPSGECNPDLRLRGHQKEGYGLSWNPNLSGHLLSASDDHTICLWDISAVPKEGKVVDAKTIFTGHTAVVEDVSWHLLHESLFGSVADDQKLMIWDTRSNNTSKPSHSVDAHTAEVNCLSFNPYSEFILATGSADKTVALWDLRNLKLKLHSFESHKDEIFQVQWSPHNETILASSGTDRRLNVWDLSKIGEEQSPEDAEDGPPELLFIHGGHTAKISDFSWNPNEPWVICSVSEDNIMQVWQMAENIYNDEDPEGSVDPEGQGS
Chain of PRC2 complex (EZH2 Y641F/EED/SUZ12/RbAp48/AEBP2) (Q6ZN18 whole entry partner): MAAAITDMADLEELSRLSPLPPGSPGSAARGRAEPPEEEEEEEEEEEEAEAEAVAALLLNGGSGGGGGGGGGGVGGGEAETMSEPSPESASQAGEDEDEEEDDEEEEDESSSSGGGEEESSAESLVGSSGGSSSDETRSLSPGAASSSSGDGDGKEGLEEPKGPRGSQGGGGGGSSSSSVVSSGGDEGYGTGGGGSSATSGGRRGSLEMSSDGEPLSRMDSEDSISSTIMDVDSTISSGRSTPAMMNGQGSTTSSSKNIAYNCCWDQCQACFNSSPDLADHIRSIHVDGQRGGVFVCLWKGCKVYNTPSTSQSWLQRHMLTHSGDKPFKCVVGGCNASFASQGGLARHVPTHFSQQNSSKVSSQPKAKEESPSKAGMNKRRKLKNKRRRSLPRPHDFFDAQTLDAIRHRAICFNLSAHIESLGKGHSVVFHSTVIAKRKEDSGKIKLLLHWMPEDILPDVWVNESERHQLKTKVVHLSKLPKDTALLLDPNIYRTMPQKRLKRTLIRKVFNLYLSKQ

Row | SMILES | pIC50
1 | COc1cc(-c2cc3cc(C(=O)NCc4c(C)cc(C)[nH]c4=O)c(C)c(C(C)N4CCOCC4)n3c2)cc(OC)c1OC (centres unmarked) [Example 37, N-((4,6-dimethyl-2-oxo-1,2-dihydropyridin-3-yl)methyl)-6-methyl-5-(1-morpholinylethyl)-2-(3,4,5-trimethoxyphenyl)indolizine-7-carboxamide] | > 7.00
2 | Cc1cc(C)c(CNC(=O)c2cc3cc(-c4cnn(C)c4)cn3c(C(C)N3CCOCC3)c2C)c(=O)[nH]1 (centres unmarked) [Example 42, N-((4,6-dimethyl-2-oxo-1,2-dihydropyridin-3-yl)methyl)-6-methyl-2-(1-methyl-1H-pyrazol-4-yl)-5-(1-morpholinylethyl)indolizine-7-carboxamide] | > 7.00
3 | Cc1cc(C)c(CNC(=O)c2cc3cc(-c4cccnc4)cn3c(C(C)N3CCC(N(C)C)CC3)c2C)c(=O)[nH]1 (centres unmarked) [Example 49, N-((4,6-dimethyl-2-oxo-1,2-dihydropyridin-3-yl)methyl)-5-(1-(4-(dimethylamino)piperidin-1-yl)ethyl)-6-methyl-2-(pyridin-3-yl)indolizine-7-carboxamide] | > 7.00
4 | Cc1cc(C)c(CNC(=O)c2cc3cc(-c4cn(C)cn4)cn3c(C(C)N3CCOCC3)c2C)c(=O)[nH]1 (centres unmarked) [Example 52, N-((4,6-dimethyl-2-oxo-1,2-dihydropyridin-3-yl)methyl)-6-methyl-2-(1-methyl-1H-imidazole-4-yl)-5-(1-morpholineylethyl)indolizine-7-carboxamide] | 6.00 to 7.00
5 | CCN(c1c(C)c(C(=O)NCc2c(C)cc(C)[nH]c2=O)cc2cccn12)C1CCOCC1 [Example 56, N-((4,6-dimethyl-2-oxo-1,2-dihydropyridin-3-yl)methyl)-6-methyl-5-(ethyl(tetrahydro-2H-pyran-4-yl)amino)indolizine-7-carboxamide] | > 7.00
6 | CCN(c1c(C)c(C(=O)NCc2c(C)cc(C)[nH]c2=O)cc2cc(Br)cn12)C1CCOCC1 [Example 58, 2-bromo-N-((4,6-dimethyl-2-oxo-1,2-dihydropyridin-3-yl)methyl)-5-(ethyl(tetrahydro-2H-pyran-4-yl)amino)-6-methylindolizine-7-carboxamide] | 6.00 to 7.00

Same assay, conditions: read-out: IC50 (EZH2_Y641F); EZH2 Y641F PRC2 complex, HTRF; class symbols

Row | SMILES | pIC50
7 | Cc1cc(C)c(CNC(=O)c2cc3cccn3c(C(C)OCc3cccs3)c2C)c(=O)[nH]1 (centres unmarked) [Example 17, N-((4,6-dimethyl-2-oxo-1,2-dihydropyridin-3-yl)methyl)-6-methyl-5-(1-(thiophene-2-ylmethoxy)ethyl)indolizine-7-carboxamide] | > 7.00
8 | Cc1cc(C)c(CNC(=O)c2cc3cccn3c(C(C)OCc3ccnn3C)c2C)c(=O)[nH]1 (centres unmarked) [Example 21] | > 7.00
9 | Cc1cc(C)c(CNC(=O)c2cc3cccn3c(C(C)Oc3ccc(N(C)C)cc3)c2C)c(=O)[nH]1 (centres unmarked) [Example 22] | 5.00 to 6.00
10 | Cc1cc(C)c(CNC(=O)c2cc3cccn3c(C(O)c3ccc(Br)cc3)c2C)c(=O)[nH]1 (centres unmarked) [Example 23, 5-((4-bromophenyl)(hydroxy)methyl)-N-((4,6-dimethyl-2-oxo-1,2-dihydropyridin-3-yl)methyl)-6-methylindolizine-7-carboxamide] | 6.00 to 7.00
11 | COC(c1ccc(Br)cc1)c1c(C)c(C(=O)NCc2c(C)cc(C)[nH]c2=O)cc2cccn12 (centres unmarked) [Example 24, 5-((4-bromophenyl)(methoxy)methyl)-N-((4,6-dimethyl-2-oxo-1,2-dihydropyridin-3-yl)methyl)-6-methylindolizine-7-carboxamide] | < 5.00
12 | Cc1cc(C)c(CNC(=O)c2cc3c(Cl)ccn3c(C(C)N3CCOCC3)c2C)c(=O)[nH]1 (centres unmarked) [Example 27, 1-chloro-N-((4,6-dimethyl-2-oxo-1,2-dihydropyridin-3-yl)methyl)-6-methyl-5-(1-morphinolinylethyl)indolizine-7-carboxamide] | > 7.00
13 | Cc1cc(C)c(CNC(=O)c2cc3cc(Br)cn3c(C(C)Oc3ccc(N(C)C)cc3)c2C)c(=O)[nH]1 (centres unmarked) [Example 30] | > 7.00
14 | Cc1cc(C)c(CNC(=O)c2cc3cc(-c4ccc5c(c4)OCO5)cn3c(C(C)N3CCOCC3)c2C)c(=O)[nH]1 (centres unmarked) [Example 31, 2-(benzo[d][1,3]dioxol-5-yl)-N-((4,6-dimethyl-2-oxo-1,2-dihydropyridine-3-yl)methyl)-6-methyl-5-(1-morphinolinylethyl)indolizin-7-carboxamide] | 6.00 to 7.00
15 | Cc1cc(C)c(CNC(=O)c2cc3cc(-c4ccc(N5CCOCC5)cc4)cn3c(C(C)N3CCOCC3)c2C)c(=O)[nH]1 (centres unmarked) [Example 32, N-((4,6-dimethyl-2-oxo-1,2-dihydropyridin-3-yl)methyl)-6-methyl-5-(1-morphinolinylethyl)-2-(4-morphinolinylphenyl)indolizine-7-carboxamide] | > 7.00
16 | Cc1cc(C)c(CNC(=O)c2cc3cc(-c4cccnc4)cn3c(C(C)N3CCOCC3)c2C)c(=O)[nH]1 (centres unmarked) [Example 33, N-((4,6-dimethyl-2-oxo-1,2-dihydropyridin-3-yl)methyl)-6-methyl-5-(1-morphinolinylethyl)-2-(pyridin-3-yl)indolizine-7-carboxamide] | > 7.00
17 | Cc1cc(C)c(CNC(=O)c2cc3cc(-c4cccc(N5CCOCC5)c4)cn3c(C(C)N3CCOCC3)c2C)c(=O)[nH]1 (centres unmarked) [Example 36, N-((4,6-dimethyl-2-oxo-1,2-dihydropyridin-3-yl)methyl)-6-methyl-5-(1-morphinolinylethyl)-2-(3-morphinolinylphenyl)indolizine-7-carboxamide] | > 7.00
18 | COc1ccc(-c2cc3cc(C(=O)NCc4c(C)cc(C)[nH]c4=O)c(C)c(C(C)N4CCOCC4)n3c2)c(OC)c1 (centres unmarked) [Example 38, 2-(2,4-dimethoxyphenyl)-N-((4,6-dimethyl-2-oxo-1,2-dihydropyridin-3-yl)methyl)-6-methyl-5-(1-morphinolinylethyl)indolizine-7-carboxamide] | > 7.00
19 | Cc1cc(C)c(CNC(=O)c2cc3cc(-c4ccc(CN5CCOCC5)cc4)cn3c(C(C)N3CCOCC3)c2C)c(=O)[nH]1 (centres unmarked) [Example 39, N-((4,6-dimethyl-2-oxo-1,2-dihydropyridin-3-yl)methyl)-6-methyl-5-(1-morphinolinylethyl)-2-(4-(morphinolinylmethyl)phenyl)indolizine-7-carboxamide] | > 7.00
20 | Cc1cc(C)c(CNC(=O)c2cc3cc(-c4ccnn4C)cn3c(C(C)N3CCOCC3)c2C)c(=O)[nH]1 (centres unmarked) [Example 41, N-((4,6-dimethyl-2-oxo-1,2-dihydropyridin-3-yl)methyl)-6-methyl-2-(1-methyl-1H-pyrazol-5-yl)-5-(1-morpholineylethyl)indolizine-7-carboxamide] | > 7.00
21 | COc1ccc(-c2cc3cc(C(=O)NCc4c(C)cc(C)[nH]c4=O)c(C)c(C(C)N4CCOCC4)n3c2)c(F)c1 (centres unmarked) [Example 43, N-((4,6-dimethyl-2-oxo-1,2-dihydropyridin-3-yl)methyl)-2-(2-fluoro-4-methoxyphenyl)-6-methyl-5-(1-morphinolinylethyl)indolizine-7-carboxamide] | > 7.00
22 | Cc1cc(C)c(CNC(=O)c2cc3cc(-c4cnn(C5CCNCC5)c4)cn3c(C(C)N3CCOCC3)c2C)c(=O)[nH]1 (centres unmarked) [Example 44, N-((4,6-dimethyl-2-oxo-1,2-dihydropyridin-3-yl)methyl)-6-methyl-5-(1-morphinolinylethyl)-2-(1-(piperidin-4-yl)-1H-pyrazol-4-yl)indolizine-7-carboxamide] | > 7.00
23 | Cc1cc(C)c(CNC(=O)c2cc3cc(C4=CCNCC4)cn3c(C(C)N3CCOCC3)c2C)c(=O)[nH]1 (centres unmarked) [Example 45, N-((4,6-dimethyl-2-oxo-1,2-dihydropyridin-3-yl)methyl)-6-methyl-5-(1-morphinolinylethyl)-2-(1,2,3,6-tetrahydropyridin-4-yl)indolizine-7-carboxamide] | 5.00 to 6.00
24 | Cc1cc(C)c(CNC(=O)c2cc3cc(C4CCNCC4)cn3c(C(C)N3CCOCC3)c2C)c(=O)[nH]1 (centres unmarked) [Example 46, N-((4,6-dimethyl-2-oxo-1,2-dihydropyridin-3-yl)methyl)-6-methyl-5-(1-morphinolinylethyl)-2-(piperidin-4-yl)indolizine-7-carboxamide] | > 7.00
25 | Cc1cc(C)c(CNC(=O)c2cc3cc(C4=CCOCC4)cn3c(C(C)N3CCOCC3)c2C)c(=O)[nH]1 (centres unmarked) [Example 47] | 6.00 to 7.00
26 | Cc1cc(C)c(CNC(=O)c2cc3cc(-c4cccnc4)cn3c(C(C)N3CCC(N(C)C)CC3)c2C)c(=O)[nH]1 (centres unmarked) [Example 48, N-((4,6-dimethyl-2-oxo-1,2-dihydropyridin-3-yl)methyl)-6-methyl-5-(1-morphinolinylethyl)-2-(tetrahydro-2H-pyran-4-yl)indolizine-7-carboxamide] | > 7.00
27 | Cc1cc(C)c(CNC(=O)c2cc3cc(-c4nccs4)cn3c(C(C)N3CCOCC3)c2C)c(=O)[nH]1 (centres unmarked) [Example 50, N-((4,6-dimethyl-2-oxo-1,2-dihydropyridin-3-yl)methyl)-6-methyl-5-(1-morphinolinylethyl)-2-(thiazol-2-yl)indolizine-7-carboxamide] | > 7.00
28 | Cc1cc(C)c(CNC(=O)c2cc3cc(-c4cn(C)cn4)cn3c(C(C)N3CCOCC3)c2C)c(=O)[nH]1 (centres unmarked) [Example 51, N-((4,6-dimethyl-2-oxo-1,2-dihydropyridin-3-yl)methyl)-6-methyl-5-(1-morphinolinylethyl)-2-(pyridin-2-yl)indolizine-7-carboxamide] | > 7.00
29 | Cc1cc(C)c(CNC(=O)c2cc3c(Br)ccn3c(C(C)N3CCOCC3)c2C)c(=O)[nH]1 (centres unmarked) [Example 53, N-((4,6-dimethyl-2-oxo-1,2-dihydropyridin-3-yl)methyl)-6-methyl-5-(1-morphinolinylethyl)-2-(4,5,6,7-tetrahydrothiazolo[5,4-c]pyridin-2-yl)indolizine-7-carboxamide] | > 7.00
30 | Cc1cc(C)c(CNC(=O)c2cc3c(Br)ccn3c(C(C)N3CCOCC3)c2C)c(=O)[nH]1 (centres unmarked) [Example 54, 1-bromo-N-((4,6-dimethyl-2-oxo-1,2-dihydropyridin-3-yl)methyl)-6-methyl-5-(1-morpholinylethyl)indolizine-7-carboxamide] | > 7.00
31 | CCN(c1c(C)c(C(=O)NCc2c(C)cc(C)[nH]c2=O)cc2cc(Br)cn12)C1CCOCC1 [Example 57] | 6.00 to 7.00
32 | CCN(c1c(C)c(C(=O)NCc2c(C)cc(C)[nH]c2=O)cc2cc(Br)cn12)C1CNC1 [Example 59] | 5.00 to 6.00
